This passage reports MIC results from publication PMC8779952, “The First Dimeric Derivatives of the Glycopeptide Antibiotic Teicoplanin” (Pharmaceuticals, 2022).

What all share (assay type): cell-based
The test system of experiment [1] is Bacillus subtilis ATCC 6633. As to the method:
(§1) The antibacterial evaluations were carried out as described in our previous publication. TLC was performed on Kieselgel 60 F254 (Merck) with detection either by immersion in ammonium molybdate–sulfuric acid solution followed by heating or by using Pauly’s reagent for detection. Flash column chromatography was performed using Silica gel 60 (Merck 0.040–0.063 mm).

The test system of experiment [2] is Enterococcus faecalis 15376 VanA. The following applies: Enterococcus faecalis 15376 VanA (vanA gene positive, teicoplanin-resistant). As to the method:
as §1

Experiment [3] deals with Enterococcus faecalis ATCC 29212. As to the method:
as §1

Experiment [4] has as its system Enterococcus faecalis ATCC 51299 VanB. As to the method:
as §1

The test system of experiment [5] is Staphylococcus aureus MRSA ATCC 33591. As to the method:
as §1

Experiment [6] relates to Staphylococcus aureus MSSA ATCC 29213. As to the method:
as §1

Experiment [7] has as its system Staphylococcus epidermidis ATCC 35984 biofilm. As to the method:
as §1

The test system of experiment [8] is Staphylococcus epidermidis mecA. As to the method: as §1
[9] abbreviates: Enterococcus faecalis ATCC 51299 VanB (vanB gene positive).

≈ marks a conversion by molar mass, not a printed value. Like-named read-outs stand apart in the source and are kept apart here.

In the case of `CC(=O)N[C@H]1[C@H](O[C@@H]2c3ccc(c(Cl)c3)Oc3cc4cc(c3O)Oc3ccc(cc3Cl)C[C@H]3NC(=O)[C@H](N)c5ccc(O)c(c5)Oc5cc(O)cc(c5)[C@H](NC3=O)C(=O)N[C@H]4C(=O)N[C@H]3C(=O)N[C@@H]2C(=O)N[C@H](C(=O)O)c2cc(O)cc(O[C@H]4O[C@H](CO)[C@@H](O)[C@H](O)[C@@H]4O)c2-c2cc3ccc2O)O[C@H](CO)[C@@H](O)[C@@H]1O` [Compound 2], the MIC turned out to be 2 µg/mL (≈ 1.28 µM) in experiment [1] (ATCC 6633); 4 µg/mL (≈ 2.56 µM) in experiment [2]; 8 µg/mL (≈ 5.11 µM) in experiment [3] (ATCC 29212); 8 µg/mL (≈ 5.11 µM) in experiment [4] (setting [9]); 2 µg/mL (≈ 1.28 µM) in experiment [5] (ATCC 33591); 4 µg/mL (≈ 2.56 µM) in experiment [6] (ATCC 29213). In addition, the MIC in experiment [7] (ATCC 35984) is 2 µg/mL (≈ 1.28 µM); in experiment [8] (mecA), 4 µg/mL (≈ 2.56 µM).

Regarding `CC(=O)N[C@H]1[C@H](O[C@@H]2c3ccc(c(Cl)c3)Oc3cc4cc(c3O)Oc3ccc(cc3Cl)C[C@H]3NC(=O)[C@H](N)c5ccc(O)c(c5)Oc5cc(O)cc(c5)[C@H](NC3=O)C(=O)N[C@H]4C(=O)N[C@H]3C(=O)N[C@@H]2C(=O)N[C@H](C(=O)O)c2cc(O)cc(O)c2-c2cc3ccc2O)O[C@H](CO)[C@@H](O)[C@@H]1O` [Compound 3, teicoplanin pseudoaglycone], the MIC in experiment [1] (ATCC 6633) came to 2 µg/mL (≈ 1.43 µM); in experiment [2], 256 µg/mL (≈ 183 µM); in experiment [3] (ATCC 29212), 4 µg/mL (≈ 2.85 µM); in experiment [4] (ATCC 51299), 2 µg/mL (≈ 1.43 µM); in experiment [5] (ATCC 33591) it was 1 µg/mL (≈ 0.713 µM); in experiment [6] (ATCC 29213), 2 µg/mL (≈ 1.43 µM). Besides, the MIC in experiment [7] (ATCC 35984) came to 2 µg/mL (≈ 1.43 µM); in experiment [8] (mecA), 1 µg/mL (≈ 0.713 µM).

As to Teicoplanin [Teico (1)], the MIC in experiment [1] (Bacillus subtilis ATCC 6633, minimum inhibitory concentration) was found to be 0.5 µg/mL; in experiment [2], 256 µg/mL; in experiment [3] (Enterococcus faecalis ATCC 29212), 2 µg/mL; in experiment [4] (setting [9]), 4 µg/mL; in experiment [5] (Staphylococcus aureus MRSA ATCC 33591 (methicillin-resistant)), 0.5 µg/mL; in experiment [6] (Staphylococcus aureus MSSA ATCC 29213 (methicillin-sensitive)) it was 0.5 µg/mL. The MIC in experiment [7] (Staphylococcus epidermidis ATCC 35984 biofilm) is 2 µg/mL; in experiment [8] (Staphylococcus epidermidis mecA (mecA gene expression)), 16 µg/mL.
